ChEMBL document CHEMBL1201862, “PubChem BioAssay data set” (2004)
Active and inactive are the calls of the source.

How the values were obtained:
[1] = P. falciparum late gametocyte killing, dose response, luminescence (AID 1117278); assay type: functional, cell-based;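 further: gametocytes exposed to compound for 24 hours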
[2] = Jurkat T cell cytotoxicity, dose response, cytotoxicity control for P. falciparum gametocyte viability project, luminescence (AID 1117277); assay type: functional, cell-based;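 further: potency reflects loss of cellular ATP meaning fewer viable cells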
[3] = molecular target: NAD-dependent protein deacylase sirtuin-5, mitochondrial (Homo sapiens, UniProt Q9NXA8); assay: SIRT5 desuccinylase inhibitors, dose response, biochemical, fluorescence imaging, cherry-pick, set 5 (AID 720591);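 further: desuccinylation of succinyl peptide AMC substrate read as fluorescence after trypsin release; potency of inhibitors that lower fluorescence and may act on trypsin instead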
NAD-dependent protein deacylase sirtuin-5, mitochondrial, sequence (Q9NXA8 whole entry): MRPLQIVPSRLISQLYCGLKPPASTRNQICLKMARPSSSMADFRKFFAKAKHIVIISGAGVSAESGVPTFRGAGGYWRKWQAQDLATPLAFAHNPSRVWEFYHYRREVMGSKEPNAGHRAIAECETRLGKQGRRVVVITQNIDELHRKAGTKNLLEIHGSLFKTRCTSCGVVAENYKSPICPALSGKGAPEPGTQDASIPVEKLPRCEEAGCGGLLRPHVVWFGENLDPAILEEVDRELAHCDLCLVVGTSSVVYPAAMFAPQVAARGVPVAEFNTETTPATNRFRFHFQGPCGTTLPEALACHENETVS

[4] = tested on: Escherichia coli; assay: microbe, parasite or virus in culture
[5] = tested on: Escherichia coli; assay: microbe, parasite or virus in culture; remark: listed apart in the source
[6] = molecular target: Paired box protein Pax-8 (Homo sapiens, UniProt Q06710); assay: inhibitors of PAX8-driven TPO luciferase reporter, dose response, RMG-I cells, cherry-pick (AID 687027); assay type: functional, cell-based;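 further: luciferase reporter driven by Pax8 target thyroperoxidase promoter measured by SteadyGlo luminescence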
Paired box protein Pax-8, sequence (Q06710 whole entry): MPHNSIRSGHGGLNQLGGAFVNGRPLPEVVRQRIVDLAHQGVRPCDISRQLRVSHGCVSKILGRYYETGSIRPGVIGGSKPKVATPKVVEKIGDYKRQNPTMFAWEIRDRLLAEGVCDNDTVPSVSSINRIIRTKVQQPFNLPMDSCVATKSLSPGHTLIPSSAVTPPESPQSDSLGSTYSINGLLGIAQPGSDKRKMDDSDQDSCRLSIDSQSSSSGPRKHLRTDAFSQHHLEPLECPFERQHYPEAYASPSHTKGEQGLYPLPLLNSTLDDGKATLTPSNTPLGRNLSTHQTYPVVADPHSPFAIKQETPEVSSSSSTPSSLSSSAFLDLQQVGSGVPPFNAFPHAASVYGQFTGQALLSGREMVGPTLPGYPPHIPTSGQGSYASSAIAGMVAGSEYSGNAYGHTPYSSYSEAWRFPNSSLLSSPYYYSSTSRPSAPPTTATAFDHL

[7] = NIH:OVCAR-3 ovarian cancer cell cytotoxicity, dose response, PAX8 inhibitor project, plate reader, dry powder samples (AID 743044); assay type: functional, cell-based
[8] = IGROV1 ovarian cancer cell cytotoxicity, dose response, PAX8 inhibitor project, plate reader, dry powder samples (AID 743043); assay type: functional, cell-based; details: IGROV-1
[9] = cytotoxicity in OVCAR8 ovarian cancer cells, dose response, PAX8 project, cell-based, plate reader, dry powder samples (AID 743197); assay type: functional; details: OVCAR-8
[10] = TRPM1 promoter luciferase reporter signal decrease, dose response, MITF inhibitor project, cell-based, SK-MEL-5, dry powder, set 9 (AID 651588); assay type: functional
[11] = A375 melanoma cell viability loss, dose response, counter-screen for MITF inhibitor project, CellTiter-Glo luminescence, dry powder, set 4 (AID 624364); assay type: functional, cell-based; details: A-375;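 further: A375 melanoma cells are MITF independent so this is a counter screen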
[12] = A375 melanoma cell cytotoxicity, dose response, counter-screen for MITF inhibitor project, CellTiter-Glo luminescence, dry powder, set 7 (AID 624490); assay type: functional, cell-based; details: A-375
[13] = MITF Orthogonal Assay: MALME3 CTG Assay Measured in Cell-Based System Using Plate Reader - 2084-04_Inhibitor_Dose_DryPowder_Activity_Set6.; assay type: functional; details: MALME-3
[14] = SK-MEL-5 parental cell viability reduction, dose response, orthogonal assay for MITF inhibitor project, CellTiter-Glo luminescence, dry powder, set 8 (AID 651586); assay type: functional, cell-based
[15] = MALME3 melanoma cell viability reduction, dose response, orthogonal assay for MITF inhibitor project, CellTiter-Glo luminescence, dry powder, set 5 (AID 651584); assay type: functional, cell-based; details: MALME-3
[16] = SK-MEL-5 parental line viability, dose response, MITF inhibitor project, cell-based, CellTiter-Glo, dry powder, set 6 (AID 624429); assay type: functional
[17] = MITF Orthogonal Assay: SK-MEL-5 CTG Assay Measured in Cell-Based System Using Plate Reader - 2084-02_Inhibitor_Dose_DryPowder_Activity_Set5.; assay type: functional
[18] = A375 melanoma cell cytotoxicity, dose response, counter-screen for MITF inhibitor project, CellTiter-Glo luminescence, dry powder, set 6 (AID 624488); assay type: functional, cell-based; details: A-375
[19] = A375 melanoma cell viability loss, dose response, counter-screen for MITF modulator project, CellTiter-Glo luminescence, dry powder, set 9 (AID 651591); assay type: functional, cell-based; details: A-375
[20] = MITF Measured in Cell-Based System Using Plate Reader - 2084-01_Inhibitor_Dose_DryPowder_Activity_Set6.; assay type: functional
[21] = MITF Measured in Cell-Based System Using Plate Reader - 2084-01_Inhibitor_Dose_DryPowder_Activity_Set7.; assay type: functional
[22] = cytotoxicity in primary human melanocytes, dose response, cytotoxicity control, cell-based, plate reader, dry powder (AID 651920); assay type: functional
[23] = P. falciparum Dd2 growth inhibitors, dose response, SYBR Green, cherry-picked samples (AID 1159567); assay type: functional, cell-based
[24] = HepG2 cell cytotoxicity, dose response, cytotoxicity control, cherry-picked samples (AID 1159577); assay type: functional, cell-based

SMILES: CC(C)c1nc2oc3c(O)ncnc3c2c2c1CCC2
- IC50 [1]: > 109 µM (inactive)
- IC50 [2]: > 83.3 µM (inactive)

SMILES: Nc1ccccc1SCc1cn2ccccc2n1
- AC50 [3]: 20.6 µM (active)
- AC50 [4]: 19.9 µM (active)
- AC50 [5]: 7.26 µM (active)

SMILES: COc1ccc(-c2[nH]ncc2-c2csc(C)n2)c(O)c1
- IC50 [1]: > 109 µM (inactive)
- IC50 [2]: > 83.3 µM (inactive)

SMILES: C[C@H]1CCCCO[C@H](CN(C)Cc2ccc(Cl)c(Cl)c2)[C@@H](C)CN([C@@H](C)CO)C(=O)c2cc(NC(=O)Nc3ccc(C(F)(F)F)cc3)ccc2O1
- AC50 [6]: 9.26 µM (active)
- AC50 [7]: 23.4 µM (active)
- AC50 [8]: 59 µM (active)
- AC50 [9]: 50.7 µM (active)

SMILES: C[C@@H]1CCCCO[C@H](CN(C)Cc2ccc(Cl)c(Cl)c2)[C@@H](C)CN([C@@H](C)CO)C(=O)c2cc(NC(=O)Nc3ccc(C(F)(F)F)cc3)ccc2O1
- AC50 [6]: 4.2 µM (active)
- AC50 [7]: 40 µM (active)
- AC50 [9]: > 70 µM (inactive)

SMILES: O=C1C(NS(=O)(=O)c2cccs2)=C(c2ccccc2)C(=O)c2ccccc21
- AC50 [10]: > 70 µM (inactive)
- AC50 [11]: > 70 µM (inactive)
- AC50 [12]: > 70 µM (inactive)
- AC50 [13]: > 70 µM (inactive)
- AC50 [14]: > 70 µM (inactive)
- AC50 [15]: > 70 µM (inactive)
- AC50 [16]: > 70 µM (inactive)
- AC50 [17]: 65.9 µM (active)
- AC50 [18]: > 70 µM (inactive)
- AC50 [19]: > 70 µM (inactive)
- AC50 [20]: 45.7 µM (active)
- AC50 [21]: 39.1 µM (active)
- AC50 [22]: > 70 µM (inactive)

SMILES: C/C=C/c1ccc([C@@H]2[C@@H]3CN(Cc4ccc5c(c4)OCO5)C[C@H]2N3)cc1
- AC50 [23]: 4.09 µM (active)
- AC50 [24]: 11.8 µM (active)

SMILES: CO[C@H]1CN(C)C(=O)c2cc(NC(=O)c3ccc(Oc4ccccc4)cc3)ccc2OC[C@@H](C)NC[C@@H]1C
- AC50 [23]: 6.05 µM (active)
- AC50 [24]: > 39 µM (inactive)
